The source of these data is PMC9091336, “Functional Characterization of Odorant Binding Protein PyasOBP2 From the Jujube Bud Weevil, Pachyrhinus yasumatsui (Coleoptera: Curculionidae)” (Frontiers in Physiology, 2022).

The structures appear in SMILES notation. Where only a bound is given, the exact number is not on record here.

Assay [1] has as its target PyasOBP2. Kind of assay: Fluorescence competitive binding assay with 1-NPN as probe. The arrangement: species or system Pachyrhinus yasumatsui. The following applies: for IC50 / Ki: PyasOBP2 2 μM, 1-NPN 2 μM; for IC50: ligand 0 to 20 μM, three replicates; for Ki: dissociation constant calculated from IC50 by Ki=IC50/(1+[1-NPN]/K1-NPN); for binding to PyasOBP2 (in words): fluorescence competitive binding, ligand up to 20 μM. How it is done: (§1) Fluorescence competitive binding assays were carried out on an F-2700 fluorescence spectrophotometer (Hitachi, Tokyo, Japan) to determine the binding affinity of PyasOBP2. 1-N-phenyl-naphthylamine (1-NPN) was used as a fluorescent probe ([Pelosi et al., 2006]) with excitation at 337 nm, and the emission spectra were measured from 370 to 550 nm. Based on gas chromatography-mass spectrometry (GC-MS) and previous studies ([Yan et al., 2017]; [Yan et al., 2020]), 38 volatiles derived from Z. jujuba were selected as putative ligands for fluorescence competitive binding assays (Table 2). 1-NPN and all ligands used in binding assays were diluted in methanol to 1 mM stock solutions. To measure the binding affinity of PyasOBP2 with 1-NPN, PyasOBP2 solution (with a final concentration of 2 μM) was titrated with 1-NPN to final concentrations ranging from 2 to 20 μM. In ligand-binding assays, each ligand with a concentration ranging from 0 to 20 μM was added into a mixture of PyasOBP2 (2 μM) and 1-NPN (2 μM), and maximal fluorescence intensities were plotted against ligand concentrations based on three replicates.
The dissociation constant K1-NPN (for PyasOBP2 binding with 1-NPN) was calculated with Scatchard plotting of binding data in the GraphPad Prism 8.0 Software ([Sideris et al., 1992]). The dissociation constant (Ki) of each ligand was calculated with Eq. 3, as described by [Cui et al. (2018)]. The ligand binding affinity to PyasOBP2 was considered as very strong (Ki≤5 μM), strong (5 μM<Ki≤10 μM), moderate (10 μM<Ki≤20 μM) and weak (Ki>20 μM) in this study. Ki=IC50/(1+[1−NPN]/K1−NPN) (3)

For assay [2], the target named is PyasOBP2. Briefly: Binding of fluorescent probe 1-NPN to PyasOBP2 (titration, Scatchard plot). Details: species or system Pachyrhinus yasumatsui. The following applies: PyasOBP2 2 μM titrated with 1-NPN 2 to 20 μM, read-out: dissociation constant of PyasOBP2 with 1-NPN. Here is the method:
as §1, with “To measure the binding affinity of PyasOBP2 with 1-NPN, PyasOBP2 solution (with a final concentration of 2 μM) was titrated with 1-NPN to final concentrations ranging from 2 to 20 μM.” left out
The dissociation constant K1-NPN (for PyasOBP2 binding with 1-NPN) was calculated with Scatchard plotting of binding data in the GraphPad Prism 8.0 Software ([Sideris et al., 1992]). The dissociation constant (Ki) of each ligand was calculated with Eq. 3, as described by [Cui et al. (2018)]. […]

Assay [3] has as its system adult P. yasumatsui antennae. Details: method as in Yan et al., 2017; Yan et al., 2020. The following applies: ref Yan et al., 2017, 2020; cited from earlier work.
In another assay the test system is P. yasumatsui adults. The arrangement: method as in Yan et al., 2017; Yan et al., 2020. The note with it: volatiles emitted from jujube shoots, ref Yan et al., 2017, 2020; cited from earlier work.

The term IC50 denotes the concentration that inhibits the measured activity by half. Lower therefore signals inhibition by little substance. As a reminder, the Ki is the dissociation constant of the complex between target and ligand, obtained from inhibition or displacement. For `C=CC(C)(O)CCC=C(C)CCC=C(C)C` (mixture of isomers) [Nerolidol], on PyasOBP2 [1], the IC50 came to 7.54 µM and the inhibition constant Ki was 6.41 µM. Besides, the Ki on PyasOBP2 [1] (listed as nerolidol) is < 10 µM.

`c1ccc(Nc2cccc3ccccc23)cc1` [1-NPN, 1-N-phenyl-naphthylamine]: at PyasOBP2 [2], the Kd came to 5.66 µM.

Regarding `C=CC(O)CC` (centres unmarked) [1-Penten-3-ol], the IC50 at PyasOBP2 [1] is > 20 µM.

For the compound `CC(C)=Cc1ccccc1` [2-Methyl-1-phenylpropene], on PyasOBP2 [1], the IC50 turned out to be 5.42 µM and the inhibition constant Ki is 4.61 µM.

In the case of `CC/C=C\CCOC(=O)C(C)CC` (stereo not drawn) [2-Methylbutyric Acid cis-3-Hexen-1-yl Ester], on PyasOBP2 [1], the IC50 was 11.9 µM and the inhibitory constant (Ki) was 10.1 µM.

Turning to `CC1=CCC2C(C1)C2(C)C` (centres unmarked) [3-Carene], at PyasOBP2 [1], the IC50 was > 20 µM and the Ki was > 20 µM.

For the compound `N#Cc1ccccc1` [Benzonitrile], at PyasOBP2 [1], the 50% inhibitory concentration (IC50) is > 20 µM and the “binding to PyasOBP2 (in words)” value was “could not bind to PyasOBP2”.

For `OCc1ccccc1` [Benzyl alcohol], at PyasOBP2 [1], the half-inhibitory concentration (IC50) was determined as 16.2 µM and the Ki was 12 µM.

For the compound `CCCCOC(C)=O` [Butyl acetate], at PyasOBP2 [1], the IC50 is > 20 µM and the Ki was > 20 µM.

In the case of `C=C1C2CCC(C2)C1(C)C` (centres unmarked) [Camphene], on PyasOBP2 [1], the IC50 came out at 8.33 µM and the Ki is 7.08 µM.

For the compound `CCCCCC=O` [Caproaldehyde], at PyasOBP2 [1], the half-maximal inhibitory concentration (IC50) amounted to 10.9 µM and the Ki is 8.03 µM.

For `CCCCOC(=O)c1ccccc1C(=O)OCCCC` [Dibutyl phthalate], at PyasOBP2 [1], the 50% inhibitory concentration (IC50) was determined as 10.5 µM and the Ki is 7.73 µM.

With `C=C(C)[C@H]1CC=C(C)CC1` [Dipentene], at PyasOBP2 [1], the IC50 stood at 7.05 µM and the Ki was 5.99 µM. Besides, the inhibition constant Ki at PyasOBP2 [1] (listed as dipentene) is < 5 µM.

Regarding `CCCCCCCCCCCC` [Dodecane], on PyasOBP2 [1], the half-maximal inhibitory concentration (IC50) is > 20 µM and the “binding to PyasOBP2 (in words)” value is recorded as “could not bind to PyasOBP2”.

In the case of `CCOC(=O)C(C)CC` (centres unmarked) [Ethyl 2-methylbutyrate], the IC50 at PyasOBP2 [1] was > 20 µM.

Take `CCCC(=O)OCC` [Ethyl butyrate]: on PyasOBP2 [1], the IC50 worked out at 3.55 µM and the inhibition constant (Ki) is 3.02 µM. For the same compound, the Ki at PyasOBP2 [1] (listed as ethyl butyrate) was < 5 µM.

Take `CCOC(=O)CC(C)C` [Ethyl isovalerate]: the half-inhibitory concentration (IC50) at PyasOBP2 [1] was > 20 µM.

On to `CCCCC(=O)OCC` [Ethyl valerate], for which the IC50 at PyasOBP2 [1] was > 20 µM.

On to `CC12CCC(CC1)C(C)(C)O2` [Eucalyptol], for which, on PyasOBP2 [1], the half-inhibitory concentration (IC50) was 15.1 µM and the Ki was 12.8 µM.

For `C=CCc1ccc(O)c(OC)c1` [Eugenol], at PyasOBP2 [1], the IC50 was > 20 µM and the “binding to PyasOBP2 (in words)” value was “could not bind to PyasOBP2”.

`CC(C)=CCCC(C)=CC#N` [Geranyl nitrile]: at PyasOBP2 [1], the 50% inhibitory concentration (IC50) was > 20 µM and the “binding to PyasOBP2 (in words)” value was “could not bind to PyasOBP2”.

Regarding `CCCCCCC=O` [Heptaldehyde], on PyasOBP2 [1], the half-inhibitory concentration (IC50) was 15.4 µM and the Ki is 11.4 µM.

In the case of `CC(C)C=O` [Isobutyraldehyde], on PyasOBP2 [1], the IC50 worked out at 13 µM and the Ki is 11 µM.

For the compound `C=CC(C)(O)CCC=C(C)C` (centres unmarked) [Linalool], at PyasOBP2 [1], the IC50 was found to be 11.6 µM and the inhibition constant Ki was 9.88 µM. Besides, at PyasOBP2 [1] (listed as linalool), the Ki was < 10 µM.

On to `CCCCCCCC/C=C\CCCCCCCC(=O)OC` [Methyl oleate], for which, on PyasOBP2 [1], the half-inhibitory concentration (IC50) was > 20 µM and the “binding to PyasOBP2 (in words)” value is “could not bind”.

`CCCCCCCCCCCCCCCC(=O)OC` [Methyl palmitate]: at PyasOBP2 [1], the IC50 was > 20 µM, the inhibition constant (Ki) is > 20 µM and the “binding to PyasOBP2 (in words)” value is listed as “could not bind”. The EAG response result in assay [3] was “strong EAG responses”. For the same compound, in the assay with P. yasumatsui adults, the attraction of adults entry is “significantly attracted”.

`C=CC(=C)CCC=C(C)C` [Myrcene]: at PyasOBP2 [1], the half-inhibitory concentration (IC50) was 11.8 µM and the inhibitory constant (Ki) was 8.92 µM.

As for `CCCCCCCCC=O` [Nonanal], at PyasOBP2 [1], the half-inhibitory concentration (IC50) was determined as 15.6 µM and the inhibition constant (Ki) was 13.2 µM. The Ki at PyasOBP2 [1] (listed as nonanal) is < 20 µM. Besides, the EAG response entry in assay [3] is reported as “strong EAG responses”. The attraction of adults entry in the assay on P. yasumatsui adults was “significantly attracted”.

Regarding `C=CC(C)=CCC=C(C)C` [Ocimene], at PyasOBP2 [1], the half-inhibitory concentration (IC50) is 10.5 µM and the Ki was 8.92 µM. In addition, the inhibition constant Ki on PyasOBP2 [1] (listed as ocimene) was < 10 µM. Also, the EAG response entry in assay [3] was “strong EAG responses”. In addition, the attraction of adults result in the assay on P. yasumatsui adults was “significantly attracted”.

Turning to `CCCCCCCC=O` [Octanal], on PyasOBP2 [1], the concentration for half-maximal inhibition (IC50) is 7.81 µM and the inhibition constant Ki was 6.64 µM.

On to `CC(C)=CCC/C(C)=C/CC/C(C)=C/CC/C=C(\C)CC/C=C(\C)CCC=C(C)C` [Squalene], for which, at PyasOBP2 [1], the IC50 was > 20 µM and the “binding to PyasOBP2 (in words)” value was “could not bind”.

With `CC/C=C\CCO` [cis-3-Hexen-1-ol], at PyasOBP2 [1], the concentration for half-maximal inhibition (IC50) was 8.06 µM and the inhibition constant Ki was 6.85 µM. In addition, the Ki at PyasOBP2 [1] (listed as cis-3-hexen-1-ol) is < 10 µM.

Consider `CC/C=C\CCOC(=O)CC(C)C` [cis-3-Hexenyl 3-methylbutanoate], for which, on PyasOBP2 [1], the IC50 is > 20 µM.

Take `CC/C=C\CCOC(C)=O` [cis-3-Hexenyl acetate]: on PyasOBP2 [1], the IC50 was > 20 µM.

Turning to `CCC/C=C/C=O` [trans-2-Hexen-1-al], on PyasOBP2 [1], the half-inhibitory concentration (IC50) was 15.8 µM and the Ki is 13.4 µM.

`CCC/C=C/CO` [trans-2-Hexen-1-ol]: at PyasOBP2 [1], the 50% inhibitory concentration (IC50) was 8.93 µM and the Ki is 6.6 µM. Further, the inhibition constant (Ki) on PyasOBP2 [1] (listed as trans-2-hexen-1-ol) is < 10 µM.

For `CC1=CC[C@H](C(C)C)C=C1` [α-Phellandrene], at PyasOBP2 [1], the half-maximal inhibitory concentration (IC50) amounted to 10.7 µM and the inhibition constant (Ki) is 9.12 µM.

In the case of `CC1=CCC2CC1C2(C)C` (stereo not drawn) [α-Pinene], at PyasOBP2 [1], the 50% inhibitory concentration (IC50) is 10.8 µM and the inhibition constant Ki was 9.18 µM.

On to `C=C/C(C)=C/C/C=C(\C)CCC=C(C)C` [α-farnesene], for which the attraction of adults result in the assay with P. yasumatsui adults was “significantly attracted”.

For `C=C1CC/C=C(\C)CC[C@@H]2[C@@H]1CC2(C)C` [β-Caryophyllene], the IC50 on PyasOBP2 [1] was > 20 µM.
